Test results reported in patent publication US11918675B2, “Oral care compositions” (priority 2019, dated 2024).

What was measured:
Type in all cases: cell-based
Whole human saliva [1] = experiment: In vitro malodor study: microbial growth by OD610; details: pooled whole human saliva 2% in growth medium, incubated overnight, n=6
Experimental: (§1) An in vitro malodor study was conducted to evaluate the effect of various combinations of inulin and xylitol with zinc on oral malodor. Malodor is a combination of hydrogen sulfide and other volatile compounds. Microbial growth as measured by OD610, and fermentation, as measured by pH (confounding variables that impact oral malodor) were also evaluated.
(§2) Whole human saliva was collected from four donors, pooled and suspended in growth medium at a 2% final concentration. Stock, simple solutions of inulin, xylitol, and zinc citrate were prepared in growth medium and incorporated according to the experiment design specified in Table 3 (below). Treatment suspensions were incubated overnight in sterilized headspace vials.
(§3) Malodor (i.e., hydrogen sulfide and other volatile compounds) in the culture vial headspace was quantified using validated procedures on Voice200ultra SIFT-MS (Syft Technologies, Christchurch, New Zealand). Following SIFT-MS analysis, microbial growth was quantified using optical density at λ=610 nm.

Whole human saliva [2] = experiment: In vitro malodor study: fermentation measured by pH; details: pooled whole human saliva 2% in growth medium, incubated overnight, n=6
Experimental: as §1, §2
The pH was measured using a standard pH meter by following validated procedures. Statistical significance of differences for all parameters was determined using one-way ANOVA test at 95% confidence level with a Tukey pairwise comparison test. Microbial growth and pH were used to stratify the treatments for hydrogen sulfide statistical analysis.

Whole human saliva [3] = experiment: In vitro malodor study: hydrogen sulfide in headspace by SIFT-MS; details: pooled whole human saliva 2% in growth medium, incubated overnight, n=6; groups stratified by growth and pH
Experimental: as §1, §2, §3
Hydrogen sulfide in headspace of salivary inoculum was quantified using SIFT-MS validated procedure.

SMILES | Microbial growth as observed by OD610, Mean (Whole human saliva [1]) | pH, Mean (Whole human saliva [2]) | Hydrogen sulfide in headspace of salivary inoculum, Mean (Whole human saliva [3]) [ppb]
OC[C@@H](O)[C@H](O)[C@@H](O)CO [Example 4, xylitol] | 0.4182 | 5.9067 | 2243
O=C([O-])CC(O)(CC(=O)[O-])C(=O)[O-].O=C([O-])CC(O)(CC(=O)[O-])C(=O)[O-].[Zn+2].[Zn+2].[Zn+2] [Example 5, zinc citrate] | 0.1407 | 6.5948 | 21.86
